# Data: patent publication US20180273507A1, “CRYSTAL FORMS OF A M1 RECEPTOR POSITIVE ALLOSTERIC MODULATOR” (Merck Sharp & Dohme Corp., priority 2015, published 2018)
# Experiment: Base catalyzed hydrolysis forced degradation, HPLC monitored
# Details: basic conditions (0.1 N), 24 hours
# Method: The experiment was conducted on a sample stored at room/ambient temperature and another sample maintained at 60° C.
smiles,measurement,setting,value
"Cc1ccc(Cc2cc3c(=O)n([C@H]4CCCC[C@@H]4O)cnc3c3ccccc23)cn1.O=C(O)/C=C/C(=O)O [3-[(1S,2S)-2-Hydroxycyclohexyl]-6-[(6-methyl-3-pyridinyl)methyl]benzo-[h]quinazolin-4(3H)-one (2E)-2-butenedioate]",degradation / loss under basic conditions,60° C.,1.4%
same,degradation / loss under basic conditions,ambient temperature,0.2%
